This note sets out measurements from patent US11274115B2, “Imidazoquinoline derivatives and their use in therapy” (GLAXOSMITHKLINE BIOLOGICALS SA, priority 2016, dated 2022).

Common to all, as to format: cell-based
Experiment [1] concerns human peripheral blood mononuclear cells (hPBMCs). Nature of the experiment: TNF-α induction in hPBMCs. Conditions: 24 h. Here is the method: (§1) Assays to Measure Cytokine Induction
(§2) Test compounds were evaluated for cytokine induction in human peripheral blood mononuclear cells (hPBMCs).
(§3) Primary human PBMCs were isolated from fresh blood from healthy donors via Ficoll gradient separation and plated at 0.5×10^6 cells/well in 96-well tissue culture plates (RPMI-1640 plus 10% FBS). hPBMCs were maintained with RPMI-1640 culture media (Invitrogen, Grand Island, N.Y.), antibiotics (Invitrogen) and 10% FBS (Sigma).
(§4) Incubation and Assays for IFN-γ, IFN-α and TNF-α
(§5) hPBMCs were stimulated for 24 h with aqueous formulations of test compounds. Culture supernatants were analyzed for TNF-α and IFN-γ induction using multiplex kits (FluoroKine multiplex kits from R&D Systems, Minneapolis, Minn.) and for IFN-α induction using human IFN-α VeriKine ELISA kit (Pestka Biomedical Laboratories, Inc., Piscataway, N.J.).

In a further experiment the target is T1, human TLR7 (Homo sapiens, UniProt Q9NYK1).
T1 construct: host or cells: HEK293
T1 sequence (Q9NYK1 27-1049): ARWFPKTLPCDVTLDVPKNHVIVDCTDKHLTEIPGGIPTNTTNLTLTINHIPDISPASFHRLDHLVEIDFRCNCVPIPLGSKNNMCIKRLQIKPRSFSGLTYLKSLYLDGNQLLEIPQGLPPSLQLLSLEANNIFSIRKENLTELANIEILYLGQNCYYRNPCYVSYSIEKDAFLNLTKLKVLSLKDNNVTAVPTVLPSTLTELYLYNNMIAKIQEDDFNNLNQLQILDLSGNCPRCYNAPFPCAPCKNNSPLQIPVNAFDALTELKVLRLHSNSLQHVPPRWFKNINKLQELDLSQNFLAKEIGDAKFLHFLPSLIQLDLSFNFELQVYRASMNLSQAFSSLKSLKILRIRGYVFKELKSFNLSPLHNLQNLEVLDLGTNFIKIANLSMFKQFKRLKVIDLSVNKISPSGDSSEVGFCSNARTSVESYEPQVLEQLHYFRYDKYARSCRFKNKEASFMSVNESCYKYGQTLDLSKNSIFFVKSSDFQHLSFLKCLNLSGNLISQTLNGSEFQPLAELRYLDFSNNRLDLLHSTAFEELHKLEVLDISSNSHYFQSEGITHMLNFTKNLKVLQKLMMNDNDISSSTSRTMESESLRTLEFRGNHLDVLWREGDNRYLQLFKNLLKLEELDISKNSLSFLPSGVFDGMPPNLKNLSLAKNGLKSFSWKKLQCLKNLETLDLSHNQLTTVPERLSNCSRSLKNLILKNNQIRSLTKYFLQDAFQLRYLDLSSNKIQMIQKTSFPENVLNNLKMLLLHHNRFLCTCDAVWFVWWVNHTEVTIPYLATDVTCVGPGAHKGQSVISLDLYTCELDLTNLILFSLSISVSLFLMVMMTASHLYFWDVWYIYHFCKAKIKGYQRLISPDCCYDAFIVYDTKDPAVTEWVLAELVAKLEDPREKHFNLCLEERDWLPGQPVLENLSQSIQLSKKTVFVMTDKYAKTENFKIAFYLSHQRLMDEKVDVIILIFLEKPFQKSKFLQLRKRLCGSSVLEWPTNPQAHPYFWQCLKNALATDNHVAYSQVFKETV
Kind of experiment: hTLR7 agonist reporter assay in HEK293 cells (NFκB-SEAP). Conditions: for EC50: read-out: hTLR7 ED50; for hTLR7/8 ratio: hTLR7 ED50 over hTLR8 ED50. As to the method: (§6) Assay for hTLR7 and hTLR8 Agonist Activity in HEK-293 Cells
(§7) Determination of TLR agonist activity was performed using the HEK293 […]. This assay measures TLR7 and TLR8 selectivity and potency of the compounds tested. HEK293 cells expressing human TLR7 or TLR8 and NFκB responsive Secreted Embryonic Alkaline Phosphatase (SEAP) reporter gene were obtained from InvivoGen (San Diego, Calif.). These cells were maintained in culture media of Dulbecco's Modified Eagle Medium (DMEM) (Invitrogen, Grand Island, N.Y.), 10% Fetal Bovine Serum (FBS) (Sigma, St. Louis, Mo.) and selection antibiotics (Invitrogen, and Invivogen). HEK293 stably transfected with human TLR7 (hTLR7) or human TLR8 (hTLR8) were stimulated for 24 h with aqueous formulations of test compounds and culture supernatants were analyzed for NFκB activation using the colorimetric SEAP detection kit QuantBlue (InvivoGen).
(Reporter assays use an easily measured gene product as a stand-in for the process of interest.)

The target of another experiment is T2, human TLR8 (Homo sapiens, UniProt Q9NR97).
T2 construct: host or cells: HEK293
T2 sequence (Q9NR97 27-1041): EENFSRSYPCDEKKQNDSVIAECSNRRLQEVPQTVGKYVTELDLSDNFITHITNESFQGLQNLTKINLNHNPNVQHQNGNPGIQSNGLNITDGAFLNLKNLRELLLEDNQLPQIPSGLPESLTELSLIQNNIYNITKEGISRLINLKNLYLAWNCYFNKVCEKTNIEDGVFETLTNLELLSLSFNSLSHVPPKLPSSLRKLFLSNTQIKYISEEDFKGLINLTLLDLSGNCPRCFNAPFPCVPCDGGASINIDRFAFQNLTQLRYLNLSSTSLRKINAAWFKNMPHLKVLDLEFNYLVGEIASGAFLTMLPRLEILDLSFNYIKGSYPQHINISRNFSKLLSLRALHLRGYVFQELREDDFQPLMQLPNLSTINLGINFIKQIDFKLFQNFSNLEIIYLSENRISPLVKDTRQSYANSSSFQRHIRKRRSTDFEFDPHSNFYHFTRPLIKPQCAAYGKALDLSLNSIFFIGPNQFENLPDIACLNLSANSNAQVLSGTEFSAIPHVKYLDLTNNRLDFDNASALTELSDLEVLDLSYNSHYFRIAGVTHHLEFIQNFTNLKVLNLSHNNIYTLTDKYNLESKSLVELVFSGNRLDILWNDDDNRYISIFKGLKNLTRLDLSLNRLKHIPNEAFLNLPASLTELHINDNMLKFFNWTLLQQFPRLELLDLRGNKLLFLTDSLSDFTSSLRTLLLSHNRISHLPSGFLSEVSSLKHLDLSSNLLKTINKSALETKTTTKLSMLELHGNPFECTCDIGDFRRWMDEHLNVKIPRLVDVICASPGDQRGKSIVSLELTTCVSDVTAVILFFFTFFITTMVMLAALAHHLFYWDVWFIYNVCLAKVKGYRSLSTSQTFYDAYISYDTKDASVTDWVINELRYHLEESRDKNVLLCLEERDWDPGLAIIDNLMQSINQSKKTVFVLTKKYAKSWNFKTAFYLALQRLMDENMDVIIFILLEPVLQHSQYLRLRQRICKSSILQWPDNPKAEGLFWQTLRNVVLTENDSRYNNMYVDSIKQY
Nature of the experiment: hTLR8 agonist reporter assay in HEK293 cells (NFκB-SEAP). Conditions: for EC50: read-out: hTLR8 ED50. Here is the method:
as §6, §7

The test system of experiment [2] is human peripheral blood mononuclear cells (hPBMCs). Nature of the experiment: IFN-α induction in hPBMCs. To be noted: 24 h. As to the method: as §1, §2, §3, §4, §5
For experiment [3] the test system is unchanged. Nature of the experiment: IFN-γ induction in hPBMCs. To be noted: 24 h, FIG. 11, another occasion. Here is the method:
as §1, §2, §3, §4, §5

[4] abbreviates: Table 2, FIG. 3, another occasion, * = only very low levels of NFKB activation were detected.
The mark [5] stands for this setting: Table 2, FIG. 4, another occasion, * = only very low levels of NFKB activation were detected.

Like-named read-outs stand apart in the source and are kept apart here.

With `CCCCCCCC/C=C\CCCCCCCC(=O)OC[C@@H](O)COP(=O)(O)OCCOc1ccc2c(c1)nc(N)c1nc(CCCC)n(CCO)c12` [Example 3], in experiment [1] (FIG. 13), the “TNF-α induction, in words” value is recorded as “potent at inducing TNF-α”. Moreover, at human TLR7 (Table 2), the “relative potency hTLR7 versus hTLR8, in words” value was “approximately equally potent at both receptors” and the hTLR7/8 ratio turned out to be 1.2. Moreover, the EC50 at human TLR7 (setting [4]) came out at 3400 nM. For the same compound, the “hTLR7 agonist activity, in words” value on human TLR7 (text on Table 2, FIG. 3) was “potent agonist of hTLR7 and hTLR8”. Further, on human TLR8 (setting [5]), the EC50 came out at 2800 nM. Besides, the “hTLR8 agonist activity, in words” value at human TLR8 (text on Table 2, FIG. 4) was “potent agonist of hTLR7 and hTLR8”. For the same compound, the “IFN-α induction, in words” value in experiment [2] (FIG. 12, another occasion) is “more potent at inducing IFN-α than Comparative Examples 1, 2 and 3”. In addition, in experiment [3], the “IFN-γ induction, in words” value is “potent at inducing IFN-γ and each was more potent than Comparative Example 3”.

On to `CCCCc1nc2c(N)nc3ccccc3c2n1CCO` [Comparative Example 1, reference compound], for which the “TNF-α induction, in words” value is “potent at inducing TNF-α” in experiment [1] (FIG. 13) and “effective at inducing TNF-α” in experiment [1] (FIG. 15, another occasion). For the same compound, the hTLR7/8 ratio on human TLR7 (Table 1) is 3.1; on human TLR7 (Table 2), 2.3; on human TLR7 (Table 3), 1.5; on human TLR7 (Table 4) it was 2.4. Besides, the EC50 at human TLR7 (setting [4]) was 1000 nM; on human TLR7 (Table 3, FIG. 5, another occasion, * = only very low levels of NFKB activation were detected), 1100 nM; on human TLR7 (Table 4, FIG. 7, another occasion), 1500 nM; at human TLR8 (setting [5]), 400 nM; at human TLR8 (Table 3, FIG. 6, another occasion, * = only very low levels of NFKB activation were detected) it was 720 nM; at human TLR8 (Table 4, FIG. 8, another occasion), 610 nM. For the same compound, the “IFN-α induction, in words” value in experiment [2] (FIG. 14, another occasion) is given as “Weaker effects”; in experiment [2] (FIG. 16, another occasion), “induced little IFN-α”. Besides, in experiment [3], the “IFN-γ induction, in words” value is listed as “the most potent at inducing IFN-γ”.
